# Columns and labels:
# [1] = system: male Swiss albino mice (CD-1); test: Psychomotor seizure test 6 Hz (32 mA); format: in vivo
# Method in brief: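 Compounds given i.p. in 1% aqueous Tween 30 min before a 3 s ocular stimulus (32 mA and/or 44 mA, 6 pulses/s) after lidocaine; mice normal within 10 s counted protected. ED50 from 3-4 groups of 6 mice; screening on groups of 4.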
# [2] = system: male Swiss albino mice (CD-1); test: Subcutaneous pentylenetetrazole seizure test (scPTZ); format: in vivo
# Method in brief: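 Compounds given i.p. in 1% aqueous Tween 30 min before s.c. PTZ at 100 mg/kg. Mice observed 30 min for clonic seizures (whole-body clonus ≥3 s with loss of righting reflex); absence counted as protection. ED50 from 3-4 groups of 6 mice; screening in groups of 4.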
# [3] = system: male white Swiss mice (CD-1); test: Oxaliplatin-induced neuropathy, Cold Plate test; format: in vivo; conditions: OXPT-induced neuropathy, plate 2° C.
# Method: Oxaliplatin (OXPT) was dissolved in a 5% glucose solution, followed by intraperitoneal administration to mice. A single dose of 10 mg/kg was used. Tactile and thermal (sensation of low temperature) allodynia associated with oxaliplatin-induced neuropathy are characterized by two phases. The early phase is acute and develops soon after administration of the OXPT, while the symptoms of the later (chronic) phase (associated with neurons damage), develops after a few days. Behavioral tests in mice with OXPT-induced neuropathy were carried out 7 days after its administration, i.e. in the late phase of neuropathy.
# The effect of the test compound on thermal allodynia was evaluated in a Cold Plate test using specialized equipment—Cold/Hot Plate; Bioseb, France. The animals were placed individually on a metal plate cooled to 2° C. using the thermostated device. The observed nociceptive reactions of animals included licking and/or characteristic hind paw lift or bounce. The observation time was set at 60 s to eliminate the potential risk of tissue damage and minimize animal discomfort. Similar to the Von Frey test, the measurement was performed 3 times.
# Compound 6 was administered at doses of 10, 20 and 30 mg/kg.
# [4] = system: Na+ channel (site 2); test: Na+ channel (site 2) affinity study; format: binding; conditions: rat cerebral cortex
# Source text: A unique feature of the compound 6 representing compounds of formula (II) according to the invention is the inhibition of calcium currents by blocking the transient receptor potential vanilloid type 1 (TRPV1). This effect has not been disclosed for known AEDs. TRPV1 receptor antagonism may determine the antinociceptive effect of the compounds disclosed herein. The role of the TRPV1 receptor in conduction of pain stimuli has been well documented in specialist literature (Szallasi, A.; Cortright, D. N.; Blum, C. A.; Eid, S. R. Nat. Rev. Drug. Discov. 2007, 6, 357-372). The compounds according to the invention are characterized by a complex mechanism of action, which is not described for known anticonvulsants. It should be emphasized, however, that further in vitro studies may reveal further molecular targets responsible for the pharmacological action of substances being the subject of current patent claim. The results of binding studies (sodium channel, calcium channel) and functional tests (TRPV1 receptor) for compound 6 are shown in Table 3.
# [5] = biological target: Potassium channel (hERG) (Homo sapiens, UniProt Q12809); test: Potassium channel (hERG) affinity study; format: binding; conditions: 100 μM, human recombinant cells (HEK-293)
# Potassium channel (hERG), sequence (Q12809 whole entry): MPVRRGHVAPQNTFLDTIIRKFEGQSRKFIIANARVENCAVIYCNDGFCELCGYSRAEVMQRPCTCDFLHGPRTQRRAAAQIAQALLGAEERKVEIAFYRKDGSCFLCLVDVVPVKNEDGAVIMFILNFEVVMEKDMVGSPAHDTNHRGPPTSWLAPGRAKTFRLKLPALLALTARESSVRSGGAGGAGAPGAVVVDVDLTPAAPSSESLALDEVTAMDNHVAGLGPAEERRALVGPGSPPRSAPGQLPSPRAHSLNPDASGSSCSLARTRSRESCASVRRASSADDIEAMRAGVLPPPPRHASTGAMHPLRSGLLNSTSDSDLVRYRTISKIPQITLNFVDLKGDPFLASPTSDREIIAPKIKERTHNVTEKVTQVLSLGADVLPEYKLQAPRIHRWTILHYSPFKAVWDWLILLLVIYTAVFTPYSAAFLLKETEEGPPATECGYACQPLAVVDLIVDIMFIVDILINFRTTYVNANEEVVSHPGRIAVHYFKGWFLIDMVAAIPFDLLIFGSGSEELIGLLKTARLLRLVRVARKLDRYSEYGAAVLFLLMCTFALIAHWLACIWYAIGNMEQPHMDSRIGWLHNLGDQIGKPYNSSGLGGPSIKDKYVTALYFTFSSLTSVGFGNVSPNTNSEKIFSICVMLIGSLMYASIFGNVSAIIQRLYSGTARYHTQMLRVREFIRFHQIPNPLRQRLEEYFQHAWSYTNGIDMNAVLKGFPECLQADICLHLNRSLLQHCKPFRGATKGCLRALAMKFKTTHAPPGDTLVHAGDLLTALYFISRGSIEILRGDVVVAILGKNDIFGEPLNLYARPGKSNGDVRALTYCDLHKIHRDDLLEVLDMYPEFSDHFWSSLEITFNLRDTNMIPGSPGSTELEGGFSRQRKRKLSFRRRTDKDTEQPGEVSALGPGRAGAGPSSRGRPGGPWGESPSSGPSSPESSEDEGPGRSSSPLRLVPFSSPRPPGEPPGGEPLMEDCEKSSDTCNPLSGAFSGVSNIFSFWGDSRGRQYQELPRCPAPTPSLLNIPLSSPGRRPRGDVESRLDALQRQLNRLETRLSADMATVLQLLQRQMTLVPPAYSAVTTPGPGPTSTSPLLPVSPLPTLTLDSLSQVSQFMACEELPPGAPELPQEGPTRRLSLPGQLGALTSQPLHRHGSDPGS
# [6] = screening, 100 mg/kg, time point 0.5 h
smiles,measurement,setting,value
"O=C(C(c1ccccc1)N1C(=O)CCC1=O)N1CCN(c2cccc(C(F)(F)F)c2)CC1 (racemic) [Compound 6, 1-(2-Oxo-1-phenyl-2-(4-(3-(trifluoromethyl)phenyl)piperazin-1-yl)ethyl)pyrrolidine-2,5-dione]",ED50,"[1]; Mus musculus, ip, 0.5 h, mice",22.4 mg/kg
same,responders at 100 mg/kg,"[1]; Mus musculus, ip, screening, 100 mg/kg i.p., 0.5 h, mice, read-out: 6 Hz (32 mA): number of mice protected/number of mice tested (converted)",100%
same,mice protected in the 6 Hz (32 mA) test,[1]; [6],100%
same,ED50,"[2]; Mus musculus, ip, 0.5 h, mice",59.4 mg/kg
same,responders at 100 mg/kg,"[2]; Mus musculus, ip, screening, 100 mg/kg i.p., 0.5 h, mice, read-out: scPTZ: number of mice protected/number of mice tested (converted)",100%
same,mice protected in the scPTZ test,[2]; [6],100%
same,effect on thermal allodynia in the cold plate test,[3],significantly increased thermal allodynia sensitivity
same,"Inhibition of specific control binding, Na+ channel (site 2)",[4]; 10 μM,33.4 (10) %
same,"Inhibition of specific control binding, Na+ channel (site 2)",[4]; 100 μM,82.5 (100) %
same,"Inhibition of specific control binding, Potassium channel (hERG)",[5],25.8 (100) %

# From patent US12139458B2, “(2,5-dioxopyrrolidin-1-yl)(phenyl)-acetamide derivatives and their use in the treatment of neurological diseases” (UNIWERSYTET JAGIELLONSKI, priority 2019, dated 2024)
